Reference: patent US5801180A, “Quinazoline derivatives” (priority 1991, dated 1998)

The compounds below were run against T1, cGMP-PDE prepared from the swine aeorta (Sus scrofa, UniProt A0A287B475) (assay: Enzyme inhibiting action with the use of cGMP-PDE prepared from the swine aorta). Conditions: CaM-independent cGMP-PDE, 1 mM EGTA, 1 μM cGMP substrate, DMSO 4% or below.
T1 construct: The swine aeorta was sliced; from tissue; host or cells: swine aorta, 100000×g supernatant, DEAE-Toyopearl 650S fraction
Format: biochemical
How it was run: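 CaM-independent cGMP-PDE isolated from pig aorta supernatant by DEAE anion-exchange chromatography. Activity measured with 1 μM cGMP substrate in presence of 1 mM EGTA, following the Thompson method. Compounds added from DMSO, final DMSO 4% or below.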

IC50 | Structure (SMILES)
9 nM | N#Cc1ccc2nc(N3CCC(C(=O)O)CC3)nc(NCc3ccc4nc[nH]c4c3)c2c1 [Example 244, 2-(4-Carboxypiperidino)-4-(benzimidazol-5-yl)methylamino-6-cyanoquinazoline]
8 nM | O=C(O)CCCCCNc1nc(NCc2ccc3c(c2)OCO3)c2cc(Cl)ccc2n1 [Example 239, 2-(5-Carboxypentyl)amino-4-(3,4-methylenendioxybenzyl)amino-6-chloroquinazoline]
28 nM | CNC(=O)N(C(=O)NC)c1nc(NCc2ccc3c(c2)OCO3)c2cc(Cl)ccc2n1 [Example 203, 2-Bis(methylcarbamoyl)amino-4-(3,4-methylenedioxybenzyl)amino-6-chloroquinazoline]
4 nM | CCCCNC(=O)Nc1nc(NCc2ccc3c(c2)OCO3)c2cc(Cl)ccc2n1 [Example 204, 2-(n-Butylcarbamoyl)amino-4-(3,4-methylenedioxybenzyl)amino-6-chloroquinazoline]
13 nM | COc1ccc2nc(N3CCC(C(=O)O)CC3)nc(NCc3ccc4c(c3)OCO4)c2c1 [Example 233, 2-(4-Carboxypiperidino)-4-(3,4-methylenedioxybenzyl)amino-6-methoxyquinazoline]
4 nM | CN(CCCC(=O)O)c1nc(NCc2ccc3c(c2)OCO3)c2cc(Cl)ccc2n1 [Example 240, 2-[N-(3-Carboxypropyl)-N-methylamino]-4-(3,4-methylenedioxybenzyl)amino-6-chloroquinazoline]
5.8 nM | CN(CCCC(=O)O)c1nc(NCc2ccc3c(c2)OCO3)c2cc(C#N)ccc2n1 [Example 230, 2-[N-(3-Carboxypropyl)-N-methylamino]-4-(3,4-methylenedioxybenzyl)amino-6-cyanoquinazoline]
0.19 nM | CCOC(=O)C1CCN(c2nc(NCc3ccc(OC)c(Cl)c3)c3cc(C#N)ccc3n2)CC1 [Example 208, 2-(4-Ethoxycarbonylpiperidino)-4-(3-chloro-4-methoxybenzyl)amino-6-cyanoquinazoline]

The next lines start with the compound.

Structure (SMILES) | IC50
COc1ccc(CNc2nc(N3CCOCC3)nc3ccc(C#N)cc23)cc1Cl [Example 183, 2-Morpholino-4-(3-chloro-4-methoxybenzyl)amino-6-cyanoquinazoline] | 0.4 nM
COc1ccc(CNc2ncnc3c(OC)c(OC)c(OC)cc23)cc1 [Example 7, 4-(4-Methoxybenzyl)amino-6,7,8-trimethoxyquinazoline] | 1000 nM
COc1cc2c(NCc3ccc4c(c3)OCO4)nc(C)nc2c(OC)c1OC [Example 81, 2-Methyl-4-(3,4-methylenedioxybenzyl)amino-6,7,8-trimethoxyquinazoline] | 440 nM
COc1ccc2nc(O)nc(NCc3ccc4c(c3)OCO4)c2c1 [Example 140, 2-Hydroxy-4-(3,4-methylenedioxybenzyl)amino-6-methoxyquinazoline] | 680 nM
COc1cc2c(NCc3ccc(Cl)c(Cl)c3)ncnc2c(OC)c1OC [Example 19, 4-(3,4-Dichlorobenzyl)amino-6,7,8-trimethoxyquinazoline] | 390 nM
O=CNc1cc(CNc2ncnc3ccc(Cl)cc23)ccc1Cl [Example 152, 4-(4-Chloro-3-formamidobenzyl)amino-6-chloroquinazoline] | 110 nM
